Reference: publication PMC10377643, “Exploration of Bis-Cinnamido-Polyamines as Intrinsic Antimicrobial Agents and Antibiotic Enhancers” (Biomolecules, 2023)
≈ marks a conversion by molar mass, not a printed value. One block for each molecule: values may come before it.

Tests used:
[1] = tested on: P. aeruginosa ATCC 27853; assay: Antimicrobial MIC, P. aeruginosa; type: cell-based; details: Pseudomonas aeruginosa, ATCC27853, mean (n = 3)
Method: (§1) The susceptibility of bacterial strains S. aureus (ATCC 25923), E. coli (ATCC 25922) and P. aeruginosa (ATCC 27853) to antibiotics and compounds was determined using protocols reported previously. Additional antimicrobial evaluation against MRSA (ATCC 43300), Klebsiella pneumoniae (ATCC 700603), Acinetobacter baumannii (ATCC 19606), Candida albicans (ATCC 90028) and Cryptococcus neoformans (ATCC 208821) was undertaken at the Community for Open Antimicrobial Drug Discovery at The University of Queensland (Australia) according to their standard protocols reported previously.

[2] = Cytotoxicity assay; type: cell-based, human; details: human, HEK293 human embryonic kidney cells, mean (n = 2), read-out: Cytotoxicity (IC50), concentration of compound at 50% cytotoxicity
Method: Cytotoxicity assays were conducted using the protocols previously reported.

[3] = tested on: E. coli ATCC 25922; assay: Antimicrobial MIC, E. coli; type: cell-based, Escherichia coli; details: mean (n = 3)
Method: as §1

[4] = tested on: E. coli ATCC 25922; assay: Erythromycin enhancement against E. coli; type: cell-based, Escherichia coli; details: erythromycin fixed at 10.9 µM (8 µg/mL)
Method: (§2) Antibiotic enhancer concentrations were determined using previously reported protocols.

[5] = tested on: S. aureus ATCC 25923; assay: Antimicrobial MIC, S. aureus; type: cell-based; details: Staphylococcus aureus, ATCC25923, mean (n = 3)
Method: as §1

[6] = tested on: human red blood cells; assay: Hemolytic assay; type: cell-based; details: mean (n = 2)
Method: Hemolysis assays were conducted using the protocols previously reported.

[7] = tested on: P. aeruginosa ATCC 27853; assay: Doxycycline enhancement against P. aeruginosa; type: cell-based, Pseudomonas aeruginosa; details: doxycycline fixed at 4.5 µM
Method: as §2
We then evaluated the set of analogues for the ability to enhance the antibiotic activity of doxycycline against P. aeruginosa ATCC 27853 and of erythromycin against E. coli ATCC 25922 (Table 2). In the case of doxycycline, a fixed concentration of the antibiotic of 4.5 μM, which is twenty-fold lower than the intrinsic MIC 90 μM against this organism, was used. Each of the test compounds was then evaluated at a range of concentrations varying from 3.125 to 50–100 μM, with the upper concentration dependent upon the compounds intrinsic MIC towards P. aeruginosa (Table 1). […] While the observation of cytotoxicity/hemolytic properties of 16a–c, 14f and 13f reduces our interest in these analogues, analogues 13b and 13d were identified as non-toxic and strong enhancers of the action of doxycycline towards P. aeruginosa.

[8] = tested on: C. albicans ATCC 90028; assay: Antifungal MIC, C. albicans (CO-ADD); type: cell-based; details: Candida albicans, ATCC90028, mean (n = 2)
Method: as §1

[9] = tested on: MRSA ATCC 43300; assay: Antimicrobial MIC, MRSA (CO-ADD); type: cell-based, methicillin-resistant S. aureus; details: Staphylococcus aureus; MRSA ATCC 43300; mean (n = 2); read-out: MIC MRSA
Method: as §1

[10] = tested on: C. neoformans ATCC 208821; assay: Antifungal MIC, C. neoformans (CO-ADD); type: cell-based; details: Cryptococcus neoformans, ATCC208821, mean (n = 2)
Method: as §1

[11] = tested on: P. aeruginosa PAO1; assay: Intrinsic MIC, P. aeruginosa PAO1; type: cell-based; details: Pseudomonas aeruginosa; P. aeruginosa PAO1; substance alone (no antibiotic / no enhancer); read-out: MIC alone, P. a
Method: as §2

[12] = Escherichia coli, ATCC25922, E. coli ATCC 25922

SMILES: COc1ccc(/C=C/C(=O)NCCCNCCCCCCCCNCCCNC(=O)/C=C/c2ccc(OC)c(Br)c2)cc1Br.O=C(O)C(F)(F)F.O=C(O)C(F)(F)F [Compound 15d, N^1,N^8-Bis(3-((E)-3-(3-bromo-4-methoxyphenyl)acrylamido)propyl)octane-1,8-diaminium 2,2,2-trifluoroacetate]
MIC [1]: > 207 µM
IC50 [2]: 19.7 µM
MIC [3, 12]: 25.9 µM
Eryth/E. c: concentration required to restore erythromycin activity [4]: 25.9 µM
Eryth/E. c: fold change (intrinsic MIC of test compound / combination MIC) [4]: 1 fold
MIC [5]: 6.48 µM
Hemolysis (HC10), concentration of compound at 10% hemolytic activity [6]: 0.52 µM
Dox/P. a: concentration required to restore doxycycline activity [7]: 51.8 µM
Dox/P. a: fold change (intrinsic MIC of test compound / combination MIC) [7]: > 4 fold
MIC [8]: 33.2 µM
MIC [9]: ≤ 0.26 µM
MIC [10]: ≤ 0.26 µM

SMILES: COc1c(Br)cc(/C=C/C(=O)NCCCNCCCCCCCCNCCCNC(=O)/C=C/c2cc(Br)c(OC)c(Br)c2)cc1Br.O=C(O)C(F)(F)F.O=C(O)C(F)(F)F [Compound 16d, N^1,N^8-Bis(3-((E)-3-(3,5-dibromo-4-methoxyphenyl)acrylamido)propyl)octane-1,8-diaminium 2,2,2-trifluoroacetate]
MIC [1]: > 178 µM
IC50 [2]: 11 µM
MIC [3, 12]: 11.1 µM
Eryth/E. c: concentration required to restore erythromycin activity [4]: 22.3 µM
Eryth/E. c: fold change (intrinsic MIC of test compound / combination MIC) [4]: 0.5 fold
MIC [5]: 5.57 µM
Hemolysis (HC10), concentration of compound at 10% hemolytic activity [6]: ≤0.22 µM
Dox/P. a: concentration required to restore doxycycline activity [7]: 44.5 µM
Dox/P. a: fold change (intrinsic MIC of test compound / combination MIC) [7]: > 4 fold
MIC [8]: > 28.5 µM
MIC [9]: ≤ 0.22 µM
MIC [10]: ≤ 0.22 µM

MIC [1]: 90 µM (≈ 40 µg/mL)
MIC [11]: 144 µM
SMILES: C[C@H]1c2cccc(O)c2C(=O)C2=C(O)[C@]3(O)C(=O)C(C(N)=O)=C(O)[C@@H](N(C)C)[C@@H]3[C@@H](O)[C@@H]21 [doxycycline, reference compound]

SMILES: COc1c(Br)cc(/C=C/C(=O)NCCCNCCCCCCCCCCCCNCCCNC(=O)/C=C/c2cc(Br)c(OC)c(Br)c2)cc1Br.O=C(O)C(F)(F)F.O=C(O)C(F)(F)F [Compound 16f, N^1,N^12-Bis(3-((E)-3-(3,5-dibromo-4-methoxyphenyl)acrylamido)propyl)dodecane-1,12-diaminium 2,2,2-trifluoroacetate]
MIC [1]: > 170 µM
IC50 [2]: 1.44 µM
MIC ([3]; E. coli ATCC 25922): 5.30 µM
MIC [3, 12]: 5.3 µM
Eryth/E. c: concentration required to restore erythromycin activity [4]: 5.30 µM
Eryth/E. c: fold change (intrinsic MIC of test compound / combination MIC) [4]: 1 fold
MIC [5]: 5.3 µM
Hemolysis (HC10), concentration of compound at 10% hemolytic activity [6]: 0.24 µM
Dox/P. a: concentration required to restore doxycycline activity [7]: 42.4 µM
Dox/P. a: fold change (intrinsic MIC of test compound / combination MIC) [7]: > 4 fold
MIC [8]: ≤ 0.21 µM
MIC [9]: ≤ 0.21 µM
MIC [10]: ≤ 0.21 µM

SMILES: COc1ccc(/C=C/C(=O)NCCCNCCCCCCNCCCNC(=O)/C=C/c2ccc(OC)cc2)cc1.O=C(O)C(F)(F)F.O=C(O)C(F)(F)F [Compound 14b, N^1,N^6-Bis(3-((E)-3-(4-methoxyphenyl)acrylamido)propyl)hexane-1,6-diaminium 2,2,2-trifluoroacetate]
MIC [1]: > 257 µM
IC50 [2]: > 41.1 µM
MIC [3, 12]: > 257 µM
Eryth/E. c: concentration required to restore erythromycin activity [4]: 256 µM
Eryth/E. c: fold change (intrinsic MIC of test compound / combination MIC) [4]: > 1 fold
MIC [5]: 64.2 µM
Hemolysis (HC10), concentration of compound at 10% hemolytic activity [6]: >41.1 µM
Dox/P. a: concentration required to restore doxycycline activity [7]: 64 µM
Dox/P. a: fold change (intrinsic MIC of test compound / combination MIC) [7]: > 4 fold
MIC [8]: > 41.1 µM
MIC [9]: 41.1 µM
MIC [10]: ≤ 0.32 µM

SMILES: O=C(C=Cc1ccccc1)NCCCNCCCCCCCNCCCNC(=O)C=Cc1ccccc1.O=C(O)C(F)(F)F.O=C(O)C(F)(F)F [Compound 13c, N^1,N^7-Bis(3-cinnamamidopropyl)heptane-1,7-diaminium 2,2,2-trifluoroacetate]
MIC [1]: > 273 µM
IC50 [2]: > 43.7 µM
MIC [3, 12]: > 273 µM
Eryth/E. c: concentration required to restore erythromycin activity [4]: 136 µM
Eryth/E. c: fold change (intrinsic MIC of test compound / combination MIC) [4]: > 2 fold
MIC [5]: > 273 µM
Hemolysis (HC10), concentration of compound at 10% hemolytic activity [6]: >43.7 µM
Dox/P. a: concentration required to restore doxycycline activity [7]: 68 µM
Dox/P. a: fold change (intrinsic MIC of test compound / combination MIC) [7]: > 4 fold
MIC [8]: > 43.7 µM
MIC [9]: > 43.7 µM
MIC [10]: > 43.7 µM

SMILES: COc1c(Br)cc(/C=C/C(=O)NCCCNCCCCCCCNCCCNC(=O)/C=C/c2cc(Br)c(OC)c(Br)c2)cc1Br.O=C(O)C(F)(F)F.O=C(O)C(F)(F)F [Compound 16c, N^1,N^7-Bis(3-((E)-3-(3,5-dibromo-4-methoxyphenyl)acrylamido)propyl)heptane-1,7-diaminium 2,2,2-trifluoroacetate]
MIC [1]: 180 µM
IC50 [2]: 22 µM
MIC [3, 12]: 11.3 µM
Eryth/E. c: concentration required to restore erythromycin activity [4]: 22.6 µM
Eryth/E. c: fold change (intrinsic MIC of test compound / combination MIC) [4]: 0.5 fold
MIC [5]: 5.64 µM
Hemolysis (HC10), concentration of compound at 10% hemolytic activity [6]: 0.31 µM
Dox/P. a: fold change (intrinsic MIC of test compound / combination MIC) [7]: 16 fold
MIC [8]: > 28.9 µM
MIC [9]: ≤ 0.23 µM
MIC [10]: ≤ 0.23 µM

SMILES: O=C(C=Cc1ccccc1)NCCCNCCCCCCCCCCCCNCCCNC(=O)C=Cc1ccccc1.O=C(O)C(F)(F)F.O=C(O)C(F)(F)F [Compound 13f, N^1,N^12-Bis(3-cinnamamidopropyl)dodecane-1,12-diaminium 2,2,2-trifluoroacetate]
MIC [1]: 50 µM
IC50 [2]: 19.9 µM
MIC [3, 12]: 1.56 µM
Eryth/E. c: concentration required to restore erythromycin activity [4]: 3.125 µM
Eryth/E. c: fold change (intrinsic MIC of test compound / combination MIC) [4]: 0.5 fold
MIC [5]: 3.12 µM
Hemolysis (HC10), concentration of compound at 10% hemolytic activity [6]: >39.9 µM
Dox/P. a: concentration required to restore doxycycline activity [7]: 6.25 µM
Dox/P. a: fold change (intrinsic MIC of test compound / combination MIC) [7]: 8 fold
MIC [8]: > 39.9 µM
MIC [9]: ≤ 0.31 µM
MIC [10]: ≤ 0.31 µM

SMILES: COc1c(Br)cc(/C=C/C(=O)NCCCNCCCCCCNCCCNC(=O)/C=C/c2cc(Br)c(OC)c(Br)c2)cc1Br.O=C(O)C(F)(F)F.O=C(O)C(F)(F)F [Compound 16b, N^1,N^6-Bis(3-((E)-3-(3,5-dibromo-4-methoxyphenyl)acrylamido)propyl)hexane-1,6-diaminium 2,2,2-trifluoroacetate]
MIC [1]: > 183 µM
IC50 [2]: 15.6 µM
MIC [3, 12]: 11.4 µM
Eryth/E. c: concentration required to restore erythromycin activity [4]: 11.4 µM
Eryth/E. c: fold change (intrinsic MIC of test compound / combination MIC) [4]: 1 fold
MIC [5]: 5.71 µM
Hemolysis (HC10), concentration of compound at 10% hemolytic activity [6]: 0.91 µM
Dox/P. a: fold change (intrinsic MIC of test compound / combination MIC) [7]: > 16 fold
MIC [8]: 29.2 µM
MIC [9]: ≤ 0.23 µM
MIC [10]: ≤ 0.23 µM

SMILES: O=C(C=Cc1ccccc1)NCCCNCCCCCCCCCCNCCCNC(=O)C=Cc1ccccc1.O=C(O)C(F)(F)F.O=C(O)C(F)(F)F [Compound 13e, N^1,N^10-Bis(3-cinnamamidopropyl)decane-1,10-diaminium 2,2,2-trifluoroacetate]
MIC [1]: 645 µM
IC50 [2]: 24.3 µM
MIC [3, 12]: 645 µM
Eryth/E. c: concentration required to restore erythromycin activity [4]: 64.5 µM
Eryth/E. c: fold change (intrinsic MIC of test compound / combination MIC) [4]: 10 fold
MIC [5]: 64.5 µM
Hemolysis (HC10), concentration of compound at 10% hemolytic activity [6]: 37.6 µM
Dox/P. a: concentration required to restore doxycycline activity [7]: 645 µM
Dox/P. a: fold change (intrinsic MIC of test compound / combination MIC) [7]: 1 fold
MIC [8]: > 41.3 µM
MIC [9]: 20.6 µM
MIC [10]: 41.3 µM

SMILES: COc1ccc(/C=C/C(=O)NCCCNCCCCCCNCCCNC(=O)/C=C/c2ccc(OC)c(Br)c2)cc1Br.O=C(O)C(F)(F)F.O=C(O)C(F)(F)F [Compound 15b, N^1,N^6-Bis(3-((E)-3-(3-bromo-4-methoxyphenyl)acrylamido)propyl)hexane-1,6-diaminium 2,2,2-trifluoroacetate]
MIC [1]: > 214 µM
IC50 [2]: > 34.2 µM
MIC [3, 12]: 53 µM
Eryth/E. c: concentration required to restore erythromycin activity [4]: 26.7 µM
Eryth/E. c: fold change (intrinsic MIC of test compound / combination MIC) [4]: 2 fold
MIC [5]: 6.67 µM
Hemolysis (HC10), concentration of compound at 10% hemolytic activity [6]: 0.99 µM
Dox/P. a: concentration required to restore doxycycline activity [7]: 53.4 µM
Dox/P. a: fold change (intrinsic MIC of test compound / combination MIC) [7]: > 4 fold
MIC [8]: > 34.1 µM
MIC [9]: 2.1 µM
MIC [10]: ≤ 0.27 µM
